Experimental data reported in article PMC10961402, “Safety, tolerability, pharmacokinetics and pharmacokinetic-pharmacodynamic modeling of cetagliptin in patients with type 2 diabetes mellitus” (Frontiers in Endocrinology, 2024).

Target: T1, plasma DPP-4 activity (Homo sapiens, UniProt P27487)
T1 construct: from tissue; host or cells: human plasma (K2-EDTA blood from T2DM patients)
Assay: Plasma DPP-4 inhibition relative to baseline (fluorescent method, Gly-Pro-7-amide-4-methylcoumarin)
Type: in vivo
Conditions: patients with T2DM; for DPP-4 inhibition TRmax,ss / DPP-4 inhibition TRmax: median (range)
Protocol: Blood samples for DPP-4 activity determination were collected at the same time points as for PK. 1 mL blood samples were collected into blood-collecting tubes containing K2-EDTA. The tubes were placed on ice until centrifugation. The blood samples were centrifuged at 2-8°C, 1500 g for 10 min within 1 hour after blood collection. After centrifugation, the supernatant were evenly divided into two aliquots and stored at -80 ± 10°C. The plasma DPP-4 activity was determined using a fluorescent method with the substrate Gly-Pro-7-amide-4-methylcoumarin. A range of 3-400 µM was covered by the linear calibration.
The degree of inhibition of DPP-4 enzyme activity relative to baseline (DPP-4 inhibition, %) after administration was calculated as the following equation:
DPP−4 inhibition (%)=(1−DPP−4 activity/DPP−4 activity,Baseline)×100

T1 sequence (P27487 39-766 limits assumed): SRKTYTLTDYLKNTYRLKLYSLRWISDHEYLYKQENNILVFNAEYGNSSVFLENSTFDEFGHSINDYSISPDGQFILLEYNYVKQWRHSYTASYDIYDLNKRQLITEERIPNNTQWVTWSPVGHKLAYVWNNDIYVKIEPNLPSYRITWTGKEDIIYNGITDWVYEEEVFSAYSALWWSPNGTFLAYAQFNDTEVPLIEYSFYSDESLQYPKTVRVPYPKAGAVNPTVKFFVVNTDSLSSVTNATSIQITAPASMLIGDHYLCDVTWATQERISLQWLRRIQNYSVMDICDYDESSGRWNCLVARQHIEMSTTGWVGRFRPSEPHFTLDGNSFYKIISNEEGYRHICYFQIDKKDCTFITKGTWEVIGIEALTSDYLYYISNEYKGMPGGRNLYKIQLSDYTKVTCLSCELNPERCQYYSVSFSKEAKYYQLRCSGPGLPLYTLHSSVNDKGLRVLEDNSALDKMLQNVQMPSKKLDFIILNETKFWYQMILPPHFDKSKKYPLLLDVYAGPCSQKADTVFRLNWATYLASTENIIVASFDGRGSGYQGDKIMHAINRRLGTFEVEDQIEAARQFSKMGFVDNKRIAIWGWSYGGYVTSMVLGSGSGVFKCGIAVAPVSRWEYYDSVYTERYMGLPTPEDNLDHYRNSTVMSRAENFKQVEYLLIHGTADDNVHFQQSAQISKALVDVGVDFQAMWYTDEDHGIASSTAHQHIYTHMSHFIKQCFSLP

`C[C@@H]1c2cnc(C(F)(F)F)n2CCN1C(=O)C[C@H](N)Cc1cc(F)c(F)cc1F.O=P(O)(O)O` [Cetagliptin, cetagliptin] was tested, and the “accumulation ratio of AUEC0-24h of DPP-4 inhibition” value (50 mg once daily) was ~1, the “DPP-4 inhibition AUEC0-24h” value (50 mg oral once daily, day 14) was 2010 ± 54.1 h*% and the “DPP-4 inhibition Rmax,ss” value (50 mg oral once daily, day 14) was 89.47 ± 1.12%. For the same compound, the “DPP-4 inhibition Rmin,ss” value (50 mg oral once daily, day 14) was 77.24 ± 4.52%, the “DUR80% (duration for DPP-4 inhibition rate of >80%)” value (50 mg oral once daily, day 14) was 21.9 ± 7.05 h and the “E24h (DPP-4 inhibition at 24 h postdose)” value (50 mg oral once daily, day 14) was 78.43 ± 3.85%. The “DUR80% (duration for DPP-4 inhibition rate of >80%)” value (50 mg oral once daily, day 14, listed as cetagliptin) was 21.9 h, the “DPP-4 inhibition TRmax,ss” value (50 mg oral once daily, day 14) was 2.00 (0.500-6.00) h and the “DPP-4 inhibition AUEC0-24h” value (50 mg oral, day 1) was 1820 ± 77.9 h*%. For the same compound, the “DPP-4 inhibition Rmax” value (50 mg oral, day 1) was 86.39 ± 1.75%, the “DUR80% (duration for DPP-4 inhibition rate of >80%)” value (50 mg oral, day 1) was 8.39 ± 2.37 h and the “E24h (DPP-4 inhibition at 24 h postdose)” value (50 mg oral, day 1) was 68.75 ± 4.75%. For the same compound, the “DUR80% (duration for DPP-4 inhibition rate of >80%)” value (50 mg oral, day 1, listed as cetagliptin) was 8.39 h, the “DPP-4 inhibition TRmax” value (50 mg oral, day 1) was 2.00 (0.500-3.00) h and the “sustained DPP-4 inhibition (≥80%) compared with sitagliptin” value (100 mg cetagliptin vs 100 mg sitagliptin, multiple administration) was “much longer”. The “accumulation ratio of AUEC0-24h of DPP-4 inhibition” value (100 mg once daily) was ~1, the “DPP-4 inhibition AUEC0-24h” value (100 mg oral once daily, day 14) was 2090 ± 24.4 h*% and the “DPP-4 inhibition Rmax,ss” value (100 mg oral once daily, day 14) was 89.99 ± 0.91%. The “DPP-4 inhibition Rmin,ss” value (100 mg oral once daily, day 14) was 84.28 ± 1.61%, the “DUR80% (duration for DPP-4 inhibition rate of >80%)” value (100 mg oral once daily, day 14) was 32.3 ± 4.53 h and the “E24h (DPP-4 inhibition at 24 h postdose)” value (100 mg oral once daily, day 14) was 83.91 ± 1.39%. The “DUR80% (duration for DPP-4 inhibition rate of >80%)” value (100 mg oral once daily, day 14, listed as cetagliptin) was 32.3 h, the “DPP-4 inhibition TRmax,ss” value (100 mg oral once daily, day 14) was 2.00 (1.00-3.00) h and the “DPP-4 inhibition AUEC0-24h” value (100 mg oral, day 1) was 2000 ± 41.6 h*%. For the same compound, the “DPP-4 inhibition Rmax” value (100 mg oral, day 1) was 88.78 ± 1.04%, the “DUR80% (duration for DPP-4 inhibition rate of >80%)” value (100 mg oral, day 1) was 21.1 ± 3.42 h and the “E24h (DPP-4 inhibition at 24 h postdose)” value (100 mg oral, day 1) was 79.75 ± 2.63%. The “DUR80% (duration for DPP-4 inhibition rate of >80%)” value (100 mg oral, day 1, listed as cetagliptin) was 21.1 h and the “DPP-4 inhibition TRmax” value (100 mg oral, day 1) was 1.00 (1.00-3.00) h.
